Data taken from ChEMBL document CHEMBL1155967, “Design, synthesis, and examination of neuron protective properties of alkenylated and amidated dehydro-silybin derivatives” (J Med Chem, 2009).
Calls of active or inactive are those of the source. No cut-off for these calls is given here.

Experiments:
[1] = test system: Radical scavenging activity; test: Antioxidant activity assessed as DPPH radical scavenging activity after 30 mins by spectrophotometry; assay type: functional
[2] = Antioxidant activity assessed as superoxide anion scavenging activity after 5 mins by spectrophotometry; assay type: functional
Liver [3] = test: Inhibition of lipid peroxidation in Sprague-Dawley rat liver homogenate assessed as malondialdehyde formation after 1 hr by TBARS assay; assay type: functional, tissue-based
[4] = Iron chelating activity assessed as inhibition of ferrozine-Fe2+ complex formation at 150 uM after 10 mins by spectrophotometry; assay type: functional
[5] = Iron chelating activity assessed as inhibition of ferrozine-Fe2+ complex formation after 10 mins by spectrophotometry; assay type: functional
PC-12 [6] = test: Neuroprotective activity against H2O2-induced injury in rat PC12 cells treated 2 hrs before H2O2 challenge measured after 4 hrs by MTT assay; assay type: functional, cell-based
[7] = target: T1, Xanthine dehydrogenase/oxidase (Rattus norvegicus, UniProt P22985); test: Inhibition of rat liver xanthine oxidase after 2 hrs by spectrophotometry
[8] = test system: Radical scavenging activity; test: Antioxidant activity assessed as DPPH radical scavenging activity at 50 uM after 30 mins by spectrophotometry; assay type: functional
PC-12 [9] = test: Neuroprotective activity against H2O2-induced injury in rat PC12 cells assessed as increase in cell viability at 50 uM treated 2 hrs before H2O2 challenge measured after 4 hrs by MTT assay; assay type: functional
[10] = Antioxidant activity assessed as superoxide anion scavenging activity at 50 uM after 5 mins by spectrophotometry; assay type: functional
[11] = target: T1, Xanthine dehydrogenase/oxidase; test: Inhibition of rat liver xanthine oxidase at 75 uM after 2 hrs by spectrophotometry; conditions: for inhibition (INH): 75 µM
PC-12 [12] = test: Neuroprotective activity against H2O2-induced injury in rat PC12 cells at 12.5 to 50 uM treated 2 hrs before H2O2 challenge measured after 4 hrs by MTT assay; assay type: functional, cell-based
[13] = Ratio of quercetin EC50 to compound EC50 for iron chelating activity
Liver [14] = test: Ratio of silybin IC50 to compound IC50 for inhibition of lipid peroxidation in Sprague-Dawley rat liver homogenate; assay type: functional, tissue-based
Liver [15] = test: Ratio of 2,3-dehydrosilybin IC50 to compound IC50 for inhibition of lipid peroxidation in Sprague-Dawley rat liver homogenate; assay type: functional, tissue-based
Liver [16] = test: Ratio of quercetin IC50 to compound IC50 for inhibition of lipid peroxidation in Sprague-Dawley rat liver homogenate; assay type: functional, tissue-based
[17] = Ratio of 2,3-dehydrosilybin EC50 to compound EC50 for iron chelating activity; assay type: functional

T1 sequence (P22985 whole entry): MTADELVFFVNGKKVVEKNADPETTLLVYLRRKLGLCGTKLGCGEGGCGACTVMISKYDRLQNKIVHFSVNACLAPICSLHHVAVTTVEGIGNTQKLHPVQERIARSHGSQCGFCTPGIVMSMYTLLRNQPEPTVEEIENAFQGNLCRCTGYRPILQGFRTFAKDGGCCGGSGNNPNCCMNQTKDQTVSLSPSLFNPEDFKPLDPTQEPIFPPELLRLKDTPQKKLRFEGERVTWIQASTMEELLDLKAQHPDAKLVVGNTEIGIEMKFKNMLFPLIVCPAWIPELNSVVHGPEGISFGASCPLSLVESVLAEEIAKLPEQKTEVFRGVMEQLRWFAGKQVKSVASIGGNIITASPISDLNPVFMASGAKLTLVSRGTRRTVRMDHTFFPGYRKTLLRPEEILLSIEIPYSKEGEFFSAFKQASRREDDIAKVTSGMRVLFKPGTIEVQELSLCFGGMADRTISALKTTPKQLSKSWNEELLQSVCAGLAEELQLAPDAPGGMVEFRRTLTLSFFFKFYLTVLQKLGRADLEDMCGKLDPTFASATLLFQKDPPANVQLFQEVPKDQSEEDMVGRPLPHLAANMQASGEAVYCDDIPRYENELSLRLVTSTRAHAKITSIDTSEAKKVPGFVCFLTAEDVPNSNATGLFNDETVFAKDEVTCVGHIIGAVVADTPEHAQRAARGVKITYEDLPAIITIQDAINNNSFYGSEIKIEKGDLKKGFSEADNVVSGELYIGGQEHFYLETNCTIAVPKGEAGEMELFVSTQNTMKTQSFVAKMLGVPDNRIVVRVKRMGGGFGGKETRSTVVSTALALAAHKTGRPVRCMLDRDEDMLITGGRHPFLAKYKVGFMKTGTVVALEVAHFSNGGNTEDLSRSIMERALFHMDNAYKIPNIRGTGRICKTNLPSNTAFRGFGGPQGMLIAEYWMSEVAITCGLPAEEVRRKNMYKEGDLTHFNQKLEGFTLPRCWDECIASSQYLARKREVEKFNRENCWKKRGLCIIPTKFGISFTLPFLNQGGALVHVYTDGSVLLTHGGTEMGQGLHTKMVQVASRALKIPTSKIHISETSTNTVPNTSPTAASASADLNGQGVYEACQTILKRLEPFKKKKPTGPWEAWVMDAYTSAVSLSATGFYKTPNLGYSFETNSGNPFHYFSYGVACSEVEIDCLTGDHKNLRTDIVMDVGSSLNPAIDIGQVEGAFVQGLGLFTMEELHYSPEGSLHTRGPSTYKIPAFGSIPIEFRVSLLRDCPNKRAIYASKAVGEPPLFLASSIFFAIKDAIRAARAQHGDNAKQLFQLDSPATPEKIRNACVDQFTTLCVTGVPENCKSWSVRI

Compound | IC50 (Liver [3]) | inhibition [4] | EC50 [5] | EC50 (PC-12 [6]) | Activity (PC-12 [9]) | Activity [10] | inhibition (INH) [11] | further results
O=c1c(O)c(-c2ccc(O)c(O)c2)oc2cc(O)cc(O)c12 [QUERCETIN] | 4.6 µM | 43.5% | 188 µM | 58.4 µM | – | – | – | EC50 [1]: 3.4 µM; EC50 [2]: 38.6 µM
Oc1ncnc2[nH]ncc12 [ALLOPURINOL] | – | – | – | – | – | – | – | IC50 [7]: 21.2 µM
COc1cc(C2Oc3cc(-c4oc5cc(O)cc(O)c5c(=O)c4O)ccc3OC2CO)ccc1O (stereo unspecified) [DEHYDROSILYLBIN] | 10.7 µM | 58% | 118 µM | 30.2 µM | 40% | – | – | inhibition [8]: 42.2%; IC50 [7]: 80.3 µM
COc1cc(C2Oc3cc(-c4oc5cc(OCC=C(C)C)cc(O)c5c(=O)c4O)ccc3OC2CO)ccc1OCC=C(C)C (racemic) | 28.1 µM | – | 138 µM | 47.4 µM | 40% | inactive | – | inhibition at 75 µM [11]: 18.9%
C=CCCOc1cc(O)c2c(=O)c(OCCC=C)c(-c3ccc4c(c3)OC(c3ccc(OCCC=C)c(OC)c3)C(CO)O4)oc2c1 (racemic) | 67.5 µM | – | – | 79.4 µM | 40% | inactive | – | –
CCOC(=O)COc1cc(O)c2c(=O)c(O)c(-c3ccc4c(c3)OC(c3ccc(OCC(=O)OCC)c(OC)c3)C(CO)O4)oc2c1 (racemic) | 36.4 µM | 53.5% | 116 µM | – | – | inactive | – | IC50 [7]: 70.8 µM; inhibition at 75 µM [11]: > 50%
COc1ccc(C(=O)OCC2Oc3ccc(-c4oc5cc(O)cc(O)c5c(=O)c4O)cc3OC2c2ccc(O)c(OC)c2)cc1 (racemic) | 104 µM | – | – | – | – | inactive | – | –
COc1cc(C2Oc3cc(-c4oc5cc(OCC(=O)Nc6ccc(Cl)cc6)cc(O)c5c(=O)c4O)ccc3OC2CO)ccc1OCC(=O)Nc1ccc(Cl)cc1 (racemic) | 153 µM | – | – | – | – | inactive | Active | Activity (PC-12 [12]): Active
COc1cc(C2Oc3cc(-c4oc5cc(OCC(=O)Nc6ccc(Cl)cc6Cl)cc(O)c5c(=O)c4O)ccc3OC2CO)ccc1OCC(=O)Nc1ccc(Cl)cc1Cl (racemic) | 20.7 µM | – | – | – | – | inactive | Active | Activity (PC-12 [12]): Active
COc1cc(C2Oc3cc(-c4oc5cc(OCC=C(C)C)cc(O)c5c(=O)c4O)ccc3OC2CO)ccc1O (racemic) | 23.3 µM | 51% | 137 µM | 32 µM | 40% | Active | – | –
COc1cc(C2Oc3cc([C@H]4Oc5cc(O)cc(O)c5C(=O)[C@@H]4O)ccc3OC2CO)ccc1O (stereo partly specified) [SILIBININ] | 84.8 µM | – | – | – | – | – | Not Active | IC50 [7]: 80.3 µM
O=C1O[C@H]([C@@H](O)CO)C(O)=C1O | – | – | – | – | – | – | – | inhibition [8]: 12.6%
C=CCCOc1cc(O)c2c(=O)c(O)c(-c3ccc4c(c3)OC(c3ccc(OCCC=C)c(OC)c3)C(CO)O4)oc2c1 (racemic) | 36.2 µM | – | 145 µM | 37.7 µM | 40% | inactive | – | –
COc1cc(C2Oc3cc(-c4oc5cc(O)cc(O)c5c(=O)c4O)ccc3OC2COC(=O)c2cccc(Cl)c2)ccc1O (racemic) | 16.9 µM | – | – | 46.5 µM | 40% | inactive | – | –
C=CCOc1cc(O)c2c(=O)c(OCC=C)c(-c3ccc4c(c3)OC(c3ccc(OCC=C)c(OC)c3)C(CO)O4)oc2c1 (racemic) | 54.8 µM | – | – | – | – | inactive | – | –
CCN(CC)C(=O)COc1cc(O)c2c(=O)c(O)c(-c3ccc4c(c3)OC(c3ccc(O)c(OC)c3)C(CO)O4)oc2c1 (racemic) | 0.7 µM | 52.5% | 113 µM | – | – | Active | Active | inhibition [8]: 46.4%
COc1ccc(NC(=O)COc2cc(O)c3c(=O)c(O)c(-c4ccc5c(c4)OC(c4ccc(OCC(=O)Nc6ccc(OC)cc6)c(OC)c4)C(CO)O5)oc3c2)cc1 (racemic) | 37 µM | – | – | – | – | inactive | Active | Activity (PC-12 [12]): Active
CCN(CC)C(=O)COc1cc(O)c2c(=O)c(O)c(-c3ccc4c(c3)OC(c3ccc(OCC(=O)N(CC)CC)c(OC)c3)C(CO)O4)oc2c1 (racemic) | 5.8 µM | 63% | 59.9 µM | – | – | inactive | Active | Activity (PC-12 [12]): Active
O=C([O-])CN(CCN(CC(=O)[O-])CC(=O)O)CC(=O)O.[Na+].[Na+] [EDETATE DISODIUM ANHYDROUS] | – | 91.5% | 16.4 µM | – | – | – | – | –
COc1cc(C2Oc3cc(-c4oc5cc(OCC(=O)Nc6ccc(C)cc6)cc(O)c5c(=O)c4O)ccc3OC2CO)ccc1OCC(=O)Nc1ccc(C)cc1 (racemic) | 74.1 µM | – | – | – | – | inactive | Active | Activity (PC-12 [12]): Active
COc1cc(C2Oc3cc(-c4oc5cc(OCC(=O)N6CCCC6)cc(O)c5c(=O)c4O)ccc3OC2CO)ccc1OCC(=O)N1CCCC1 (racemic) | 0.9 µM | 87% | 23.2 µM | – | – | inactive | Active | Ratio EC50 [13]: 7; inhibition [8]: 44.2%; Ratio IC50 (Liver [14]): 93; Ratio IC50 (Liver [15]): 11; Ratio IC50 (Liver [16]): 5; Ratio EC50 [17]: 4; Activity (PC-12 [12]): Active
C=CCOc1cc(O)c2c(=O)c(O)c(-c3ccc4c(c3)OC(c3ccc(OCC=C)c(OC)c3)C(CO)O4)oc2c1 (racemic) | 22.6 µM | 72.5% | 129 µM | 20.5 µM | 40% | inactive | – | –
